Test results: patent US10800816B2 (Baxalta GmbH, priority 2012, dated 2020)
*1 amine or outer side, *2 acyl side, *3 side chain or, on linkers, in order; H or OH if unused. Where a SMILES comes first, the peptide text is derived from it. Bridges are numbered along the chain shown (N, C = ends). Side-chain parts run from the residue outwards. [ ]: non-standard residue; d: D form. The star is where a group is joined. TTDA(Palmitoyl) = CCCCCCCCCCCCCCCC(=O)NCCCOCCOCCOCCCN*; Suc = O=C(CCC(=O)[*:2])[*:1]; Tle = CC(C)(C)[C@H](N)C(=O)O; Hexanoyl = CCCCCC(=O)*; Aib = CC(C)(N)C(=O)O; Acm = CC(=O)NC*; Sar = CNCC(=O)O

tested on: TFPI; test: Extrinsic Tenase Inhibition assay | % Inhibition @ 2.5μM

Compound	Extrinsic Tenase Inhibition assay | % Inhibition @ […] [%]
Ac-FQSK-Nmg-NVFVAGYFERLRAKL-NH2 (SEQ ID NO: 161) (Ac-FQSK[Sar]NVFVAGYFERLRAKL-NH2; SMILES CC(=O)N[C@@H](Cc1ccccc1)C(=O)N[C@@H](CCC(N)=O)C(=O)N[C@@H](CO)C(=O)N[C@@H](CCCCN)C(=O)N(C)CC(=O)N[C@@H](CC(N)=O)C(=O)N[C@H](C(=O)N[C@@H](Cc1ccccc1)C(=O)N[C@H](C(=O)N[C@@H](C)C(=O)NCC(=O)N[C@@H](Cc1ccc(O)cc1)C(=O)N[C@@H](Cc1ccccc1)C(=O)N[C@@H](CCC(=O)O)C(=O)N[C@@H](CCCNC(=N)N)C(=O)N[C@@H](CC(C)C)C(=O)N[C@@H](CCCNC(=N)N)C(=O)N[C@@H](C)C(=O)N[C@@H](CCCCN)C(=O)N[C@@H](CC(C)C)C(N)=O)C(C)C)C(C)C) [JBT1396]	34
Ac-FQSK-Nmg-NVFVTGYFERL-Aib-AKL-NH2 (SEQ ID NO: 165) (Ac-FQSK[Sar]NVFVTGYFERL[Aib]AKL-NH2; SMILES CC(=O)N[C@@H](Cc1ccccc1)C(=O)N[C@@H](CCC(N)=O)C(=O)N[C@@H](CO)C(=O)N[C@@H](CCCCN)C(=O)N(C)CC(=O)N[C@@H](CC(N)=O)C(=O)N[C@H](C(=O)N[C@@H](Cc1ccccc1)C(=O)N[C@H](C(=O)N[C@H](C(=O)NCC(=O)N[C@@H](Cc1ccc(O)cc1)C(=O)N[C@@H](Cc1ccccc1)C(=O)N[C@@H](CCC(=O)O)C(=O)N[C@@H](CCCNC(=N)N)C(=O)N[C@@H](CC(C)C)C(=O)NC(C)(C)C(=O)N[C@@H](C)C(=O)N[C@@H](CCCCN)C(=O)N[C@@H](CC(C)C)C(N)=O)[C@@H](C)O)C(C)C)C(C)C) [JBT1585]	48
Ac-FQSK-Nmg-NVFVTGYFERLRAKL-NH2 (SEQ ID NO: 125) (Ac-FQSK[Sar]NVFVTGYFERLRAKL-NH2; SMILES CC(=O)N[C@@H](Cc1ccccc1)C(=O)N[C@@H](CCC(N)=O)C(=O)N[C@@H](CO)C(=O)N[C@@H](CCCCN)C(=O)N(C)CC(=O)N[C@@H](CC(N)=O)C(=O)N[C@H](C(=O)N[C@@H](Cc1ccccc1)C(=O)N[C@H](C(=O)N[C@H](C(=O)NCC(=O)N[C@@H](Cc1ccc(O)cc1)C(=O)N[C@@H](Cc1ccccc1)C(=O)N[C@@H](CCC(=O)O)C(=O)N[C@@H](CCCNC(=N)N)C(=O)N[C@@H](CC(C)C)C(=O)N[C@@H](CCCNC(=N)N)C(=O)N[C@@H](C)C(=O)N[C@@H](CCCCN)C(=O)N[C@@H](CC(C)C)C(N)=O)[C@@H](C)O)C(C)C)C(C)C) [JBT1155]	32
Ac-FQSKGNVFvFGYFERLRAKL-NH2 (SEQ ID NO: 936) (Ac-FQSKGNVF[dV]FGYFERLRAKL-NH2; SMILES CC(=O)N[C@@H](Cc1ccccc1)C(=O)N[C@@H](CCC(N)=O)C(=O)N[C@@H](CO)C(=O)N[C@@H](CCCCN)C(=O)NCC(=O)N[C@@H](CC(N)=O)C(=O)N[C@H](C(=O)N[C@@H](Cc1ccccc1)C(=O)N[C@@H](C(=O)N[C@@H](Cc1ccccc1)C(=O)NCC(=O)N[C@@H](Cc1ccc(O)cc1)C(=O)N[C@@H](Cc1ccccc1)C(=O)N[C@@H](CCC(=O)O)C(=O)N[C@@H](CCCNC(=N)N)C(=O)N[C@@H](CC(C)C)C(=O)N[C@@H](CCCNC(=N)N)C(=O)N[C@@H](C)C(=O)N[C@@H](CCCCN)C(=O)N[C@@H](CC(C)C)C(N)=O)C(C)C)C(C)C) [JBT1149]	0
Ac-FQSKKNVFFFGYFERLRAKL-NH2 (SEQ ID NO: 735) [JBT1152]	0
Ac-FQSKKNVFVFGYFERLRAKD-NH2 (SEQ ID NO: 937) [JBT1151]	0
Ac-FQSKpNVFVFGYFERLRAKL-NH2 (SEQ ID NO: 129) (Ac-FQSK[dP]NVFVFGYFERLRAKL-NH2; SMILES CC(=O)N[C@@H](Cc1ccccc1)C(=O)N[C@@H](CCC(N)=O)C(=O)N[C@@H](CO)C(=O)N[C@@H](CCCCN)C(=O)N1CCC[C@@H]1C(=O)N[C@@H](CC(N)=O)C(=O)N[C@H](C(=O)N[C@@H](Cc1ccccc1)C(=O)N[C@H](C(=O)N[C@@H](Cc1ccccc1)C(=O)NCC(=O)N[C@@H](Cc1ccc(O)cc1)C(=O)N[C@@H](Cc1ccccc1)C(=O)N[C@@H](CCC(=O)O)C(=O)N[C@@H](CCCNC(=N)N)C(=O)N[C@@H](CC(C)C)C(=O)N[C@@H](CCCNC(=N)N)C(=O)N[C@@H](C)C(=O)N[C@@H](CCCCN)C(=O)N[C@@H](CC(C)C)C(N)=O)C(C)C)C(C)C) [JBT1162]	51
Ac-[CFQSKGNVFVDGYFERLC]AKL-NH2 (SEQ ID NO: 402) (Ac-CFQSKGNVFVDGYFERLCAKL-NH2; disulfide 1-18) [JBT1592]	11

tested on: TFPI; test: IC50 ELISA | Mean IC50 [nM]
Excerpt: Table printed on a drawing sheet, FIGURE 78Z
Head of the field: IC50 ELISA | Mean IC50 [nM]
First copying reader's note: Continued table: the first body row (45.67) belongs to a compound on the preceding sheet, the last row probably continues on the next sheet, and cells with several values list single replicates.

Compound	IC50 [nM]
CCCCCCCCCCCCCCCC(=O)NCCCOCCOCCOCCCNC(=O)CCC(=O)NCCCC[C@H](NC(=O)[C@H](CC(C)C)NC(=O)[C@H](CCCCN)NC(=O)[C@H](C)NC(=O)C(C)(C)NC(=O)[C@H](CC(C)C)NC(=O)[C@H](CCCNC(=N)N)NC(=O)[C@H](CCC(=O)O)NC(=O)[C@H](Cc1ccccc1)NC(=O)[C@H](Cc1ccc(O)cc1)NC(=O)[C@@H](C)NC(=O)[C@H](CC(=O)O)NC(=O)[C@@H](NC(=O)[C@H](Cc1c[nH]cn1)NC(=O)[C@@H](NC(=O)[C@H](CSCNC(C)=O)NC(=O)[C@H]1CCCN1C(=O)[C@H](CCCCN)NC(=O)[C@H](CO)NC(=O)[C@H](CCC(N)=O)NC(=O)[C@H](Cc1ccccc1)NC(=O)CCCCC)C(C)C)C(C)(C)C)C(N)=O [JBT00002532, Hex-FQSKp-Cys(Acm)-VH-Tle-DaYFERL-Aib-AKLK(Ttds- Palm)--NH2] (Hexanoyl-FQSK[dP]C(Acm)VH[Tle]D[dA]YFERL[Aib]AKLK([Suc-TTDA(Palmitoyl)])-NH2)	36.7

tested on: not listed separately; test: FIGURE 78M

Compound	24 h Human Plasma Stability | Mean Remaining [%]
CC(=O)N[C@@H](Cc1ccccc1)C(=O)N[C@@H](CCC(N)=O)C(=O)N[C@@H](CO)C(=O)N[C@@H](CCCCN)C(=O)N1CCC[C@@H]1C(=O)N[C@@H](CC(N)=O)C(=O)N[C@H](C(=O)N[C@@H](Cc1c[nH]cn1)C(=O)N[C@H](C(=O)N[C@@H](CS)C(=O)NCC(=O)N[C@@H](Cc1ccc(O)cc1)C(=O)N[C@@H](Cc1ccccc1)C(=O)N[C@@H](CCC(=O)O)C(=O)N[C@@H](CCCNC(=N)N)C(=O)N[C@@H](CC(C)C)C(=O)NC(C)(C)C(=O)N[C@@H](C)C(=O)N[C@@H](CCCCN)C(=O)N[C@@H](CC(C)C)C(N)=O)C(C)C)C(C)C [JBT00002371]	31.20
CC[C@H](NC(=O)[C@H](Cc1c[nH]cn1)NC(=O)[C@@H](NC(=O)[C@H](CC(N)=O)NC(=O)[C@H]1CCCN1C(=O)[C@H](CCCCN)NC(=O)[C@H](CO)NC(=O)[C@H](CCC(N)=O)NC(=O)[C@H](Cc1ccccc1)NC(C)=O)C(C)C)C(=O)N[C@@H](CC(=O)O)C(=O)NCC(=O)N[C@@H](Cc1ccc(O)cc1)C(=O)N[C@@H](Cc1ccccc1)C(=O)N[C@@H](CCC(=O)O)C(=O)N[C@@H](CCCNC(=N)N)C(=O)N[C@@H](CC(C)C)C(=O)NC(C)(C)C(=O)N[C@@H](C)C(=O)N[C@@H](CCCCN)C(=O)N[C@@H](CC(C)C)C(=O)N[C@@H](CSC1CC(=O)N(CC)C1=O)C(N)=O (some centres unmarked) [JBT00002381, Ac-FQSKpNVH-Abu-DGYFERL-Aib-AKLC(NEM)-NH2]	17.30
CCN1C(=O)CC(SC[C@H](NC(=O)[C@H](CC(C)C)NC(=O)[C@H](CCCCN)NC(=O)[C@H](C)NC(=O)C(C)(C)NC(=O)[C@H](CC(C)C)NC(=O)[C@H](CCCNC(=N)N)NC(=O)[C@H](CCC(=O)O)NC(=O)[C@H](Cc2ccccc2)NC(=O)[C@H](Cc2ccc(O)cc2)NC(=O)CNC(=O)[C@H](CC(=O)O)NC(=O)[C@H](CC(F)(F)F)NC(=O)[C@H](Cc2c[nH]cn2)NC(=O)[C@@H](NC(=O)[C@H](CC(N)=O)NC(=O)[C@H]2CCCN2C(=O)[C@H](CCCCN)NC(=O)[C@H](CO)NC(=O)[C@H](CCC(N)=O)NC(=O)[C@H](Cc2ccccc2)NC(C)=O)C(C)C)C(N)=O)C1=O (stereo partly drawn) [JBT00002382, Ac-FQSKpNVH-(L-2-Amino-4,4,4-trifluorobutyric acid)- DGYFERL-Aib-AKLC(NEM)-NH2]	20.50
CCN1C(=O)CC(SC[C@H](NC(=O)[C@H](CC(C)C)NC(=O)[C@H](CCCCN)NC(=O)[C@H](C)NC(=O)C(C)(C)NC(=O)[C@H](CC(C)C)NC(=O)[C@H](CCCNC(=N)N)NC(=O)[C@H](CCC(=O)O)NC(=O)[C@H](Cc2ccccc2)NC(=O)[C@H](Cc2ccc(O)cc2)NC(=O)CNC(=O)[C@H](CC(=O)O)NC(=O)[C@@H](NC(=O)[C@H](Cc2c[nH]cn2)NC(=O)[C@@H](NC(=O)[C@H](CC(N)=O)NC(=O)[C@H]2CCCN2C(=O)[C@H](CCCCN)NC(=O)[C@H](CO)NC(=O)[C@H](CCC(N)=O)NC(=O)[C@H](Cc2ccccc2)NC(C)=O)C(C)C)C2CCCC2)C(N)=O)C1=O (some centres unmarked) [JBT00002383, Ac-FQSKpNVH-Cpg-DGYFERL-Aib-AKLC(NEM)-NH2]	31.00
CCN1C(=O)CC(SC[C@H](NC(=O)[C@H](CC(C)C)NC(=O)[C@H](CCCCN)NC(=O)[C@H](C)NC(=O)C(C)(C)NC(=O)[C@H](CC(C)C)NC(=O)[C@H](CCCNC(=N)N)NC(=O)[C@H](CCC(=O)O)NC(=O)[C@H](Cc2ccccc2)NC(=O)[C@H](Cc2ccc(O)cc2)NC(=O)CNC(=O)[C@H](CC(=O)O)NC(=O)C(C)(C)NC(=O)[C@H](Cc2c[nH]cn2)NC(=O)[C@@H](NC(=O)[C@H](CC(N)=O)NC(=O)[C@H]2CCCN2C(=O)[C@H](CCCCN)NC(=O)[C@H](CO)NC(=O)[C@H](CCC(N)=O)NC(=O)[C@H](Cc2ccccc2)NC(C)=O)C(C)C)C(N)=O)C1=O (some centres unmarked) [JBT00002385, Ac-FQSKpNVH-Aib-DGYFERL-Aib-AKLC(NEM)-NH2]	51.50

tested on: not listed separately; test: FIGURE 78Z

Compound	24 h Human Plasma Stability | Mean Remaining [%]	24 h Mouse Plasma Stability | Mean Remaining [%]
CCCCCCCCCCCCCCCC(=O)NCCCOCCOCCOCCCNC(=O)CCC(=O)NCCCC[C@H](NC(=O)[C@H](CC(C)C)NC(=O)[C@H](CCCCN)NC(=O)[C@H](C)NC(=O)C(C)(C)NC(=O)[C@H](CC(C)C)NC(=O)[C@H](CCCNC(=N)N)NC(=O)[C@H](CCC(=O)O)NC(=O)[C@H](Cc1ccccc1)NC(=O)[C@H](Cc1ccc(O)cc1)NC(=O)[C@@H](C)NC(=O)[C@H](CC(=O)O)NC(=O)[C@@H](NC(=O)[C@H](Cc1c[nH]cn1)NC(=O)[C@@H](NC(=O)[C@H](CSCNC(C)=O)NC(=O)[C@H]1CCCN1C(=O)[C@H](CCCCN)NC(=O)[C@H](CO)NC(=O)[C@H](CCC(N)=O)NC(=O)[C@H](Cc1ccccc1)NC(=O)CCCCC)C(C)C)C(C)(C)C)C(N)=O [JBT00002532, Hex-FQSKp-Cys(Acm)-VH-Tle-DaYFERL-Aib-AKLK(Ttds- Palm)--NH2] (Hexanoyl-FQSK[dP]C(Acm)VH[Tle]D[dA]YFERL[Aib]AKLK([Suc-TTDA(Palmitoyl)])-NH2)	107.70	67.50
(Hex-FQSKp-Cys(Acm)-VH-Tle-DaYFERL-Aib-AKLC- NH2)2-M2TriO [JBT00002533]	185.13	52.65
Hex-FQSKp-Cys(Acm)-VH-Tle-DaYFERL-Aib-AKLC(ME- 400MA)-NH2 [JBT00002534]	59.83	69.87
